Measured values reported in paper PMC8474116, “Discovery of Novel Acetamide-Based Heme Oxygenase-1 Inhibitors with Potent In Vitro Antiproliferative Activity” (Journal of Medicinal Chemistry, 2021).

Tests used:
HO-1 [1] = molecular target: T1, HO-1 (Rattus norvegicus, UniProt P06762); test: HO-1 enzymatic activity, rat spleen microsomal fraction (bilirubin formation); assay type: biochemical; conditions: for IC50 / HO-1 inhibitory activity (in words): rat spleen microsomal fraction; for IC50: mean of triplicate ± SD; for SI (HO-2/HO-1): ratio of HO-2 and HO-1 IC50
T1 construct: selected to use the most native (i.e., closest to in vivo) forms of HO-1 and HO-2; from tissue; host or cells: rat spleen (male Sprague-Dawley), microsomal fraction
T1 sequence (P06762 1-289): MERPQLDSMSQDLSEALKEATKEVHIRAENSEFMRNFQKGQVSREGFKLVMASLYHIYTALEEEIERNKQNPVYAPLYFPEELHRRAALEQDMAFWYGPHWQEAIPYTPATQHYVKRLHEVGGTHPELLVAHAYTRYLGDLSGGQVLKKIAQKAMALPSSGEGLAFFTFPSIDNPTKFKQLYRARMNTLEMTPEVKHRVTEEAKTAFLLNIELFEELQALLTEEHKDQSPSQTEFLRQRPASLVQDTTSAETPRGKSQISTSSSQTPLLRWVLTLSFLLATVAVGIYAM
Protocol: (§1) HO-1 and HO-2 were obtained, respectively, from the rat spleen and brain as the microsomal fraction prepared by differential centrifugation; the dominance of HO-1 protein in the rat spleen and HO-2 in the rat brain has been well documented.[24] These particular microsomal preparations were selected to use the most native (i.e., closest to in vivo) forms of HO-1 and HO-2. Spleen and brain (Sprague-Dawley rats) microsomal fractions were prepared according to the procedure outlined by Ryter et al.[2] The experiments reported in the present paper complied with the current Italian law and met the guidelines of the Institutional Animal Care and Use Committee of the Ministry of Health (Directorate General for Animal Health and Veterinary Medicines, Italy) “Dosing of enzymatic activities in rat microsomes” (2018–2022), project code 02769.N.VLY. The experiments were performed in male Sprague-Dawley albino rats (150 g body weight and age 45 d). They had free access to water and were kept at room temperature with a natural photoperiod (12 h light–12 h dark cycle). For measuring HO-1 and HO-2 activities, each rat was sacrificed and their spleen and brain were excised and weighed. A homogenate (15%, w/v) of spleens and brains pooled from four rats was prepared in ice-cold HO-homogenizing buffer (50 mM Tris buffer, pH 7.4, containing 0.25 M sucrose) using a Potter–Elvehjem homogenizing system with a Teflon pestle. The microsomal fraction of rat spleen and brain homogenate was obtained by centrifugation at 10 000g for 20 min at 4 °C, followed by centrifugation of the supernatant at 100 000g for 60 min at 4 °C. The 100 000g pellet (microsomes) was resuspended in 100 mM of potassium phosphate buffer, pH 7.8, containing 2 mM MgCl2 with a Potter–Elvehjem homogenizing system. The rat spleen and brain microsomal fractions were divided into equal aliquots, placed into microcentrifuge tubes, and stored at −80 °C for up to 2 months.
(§2) Liver cytosol has been used as a source of biliverdin reductase. Rat liver was perfused through the hepatic portal vein with cold 0.9% NaCl; then, it was cut and flushed with 2 × 20 mL of ice-cold PBS to remove all of the blood. Liver tissue was homogenized in 3 volumes of a solution containing 1.15% KCl w/v and Tris buffer 20 mM, pH 7.8 on ice. Homogenates were centrifuged at 10 000g for 20 min at 4 °C. The supernatant was decanted and centrifuged at 100 000g for 1 h at 4 °C to sediment the microsomes. The 100 000g supernatant was saved and then stored in small amounts at −80 °C after its protein concentration was measured.
(§3) The HO-1 and HO-2 activities were determined by measuring the bilirubin formation using the difference in absorbance at 464–530 nm, as described by Ryter et al.[2] Reaction mixtures (500 μL) consisted of 20 mM of Tris–HCl, pH 7.4, (1 mg/mL) microsomal extract, 0.5–2 mg/mL of biliverdin reductase, 1 mM of NADPH, 2 mM of glucose 6-phosphate (G6P), 1 U of G6P dehydrogenase, 25 μM of hemin, and 10 μL of DMSO (or the same volume of DMSO solution of test compounds to a final concentration of 100, 10, and 1 μM). Incubations were carried out for 60 min at 37 °C in a circulating water bath in the dark. Reactions were stopped by adding the same volume of chloroform. After recovering the chloroform phase, the amount of bilirubin formed was measured with a double-beam spectrophotometer as OD464–530 nm (extinction coefficient, 40 mM/cm^–1 for bilirubin). One unit of the enzyme was defined as the amount of enzyme catalyzing the formation of 1 nmol of bilirubin/mg protein/h.

HO-2 = molecular target: T2, HO-2 (Rattus norvegicus, UniProt P23711); test: HO-2 enzymatic activity, rat brain microsomal fraction (bilirubin formation); assay type: biochemical; conditions: mean of triplicate ± SD
T2 construct: selected to use the most native (i.e., closest to in vivo) forms of HO-1 and HO-2; from tissue; host or cells: rat brain (male Sprague-Dawley), microsomal fraction
T2 sequence (P23711 1-315): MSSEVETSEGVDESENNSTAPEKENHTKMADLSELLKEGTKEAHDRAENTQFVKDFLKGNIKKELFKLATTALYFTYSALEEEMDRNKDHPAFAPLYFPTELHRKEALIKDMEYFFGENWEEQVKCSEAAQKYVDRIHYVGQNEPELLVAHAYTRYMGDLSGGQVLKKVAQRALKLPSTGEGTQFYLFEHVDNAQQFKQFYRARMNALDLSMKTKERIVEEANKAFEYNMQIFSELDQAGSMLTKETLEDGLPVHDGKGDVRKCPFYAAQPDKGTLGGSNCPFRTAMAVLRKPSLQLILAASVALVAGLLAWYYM
Protocol: as §1, §2, §3

A172 cells = test: MTT cell viability assay, A172; assay type: cell-based, human; conditions: 48 h
Protocol: (§4) Experiments were performed on human GBM cell lines U87MG (ATCCC number #HTB-14) and A172 (ATCCC #CRL-1620) on DU145 (ATCC HTB-81) and human lung adenocarcinoma A549 (ATCC CCL-185-LUC2). All cell lines were obtained from the American Type Culture Collection (ATCC, Rockville, MD). Cells were grown in Dulbecco’s modified Eagle’s medium (DMEM) supplemented with 10% of heat-inactivated fetal bovine serum (FBS), 100 U/mL of penicillin, and 100 μg/mL of streptomycin (Sigma-Aldrich, Steinheim, Germany). Cells were incubated at 37 °C in a humidified atmosphere with 5% CO2.
(§5) The effect of selected compounds 7i and 7l–p on cell viability was assessed by performing an MTT assay. Cells were seeded into 96-well plates at a density of 7 × 10^3 cells/well in 100 μL of culture medium. After 24 h, cells were treated with selected compounds at three different concentrations (1 μM, 10 μM, and 50 μM) for 48 h. Following treatments, 0.5 mg/mL of 3-[4,5-dimethylthiazol-2-yl]-2,5-diphenyltetrazolium bromide (MTT) (Sigma-Aldrich) was added to each well and incubated for 4 h at 37 °C. Finally, dimethyl-sulfoxide (DMSO) was used to dissolve formazan salts, and absorbance was measured at 570 nm in a microplate reader (Biotek Synergy-HT). Eight replicate wells were used for each group.

U87MG cells = test: MTT cell viability assay, U87MG; assay type: cell-based, human; conditions: 48 h, at both concentrations 1 and 10 μM
Protocol: as §4, §5

HO-1 [2] = test: HO-1 protein expression by Western blot, A172; assay type: cell-based, human; conditions: A172, 10 μM, 48 h
Protocol: Proteins were extracted from total cell lysate, as previously described.[61] Briefly, cell lines were added to a buffer containing 20 mM Tris (pH 7.4), 2 mM EDTA, 0.5 mM EGTA, 50 mM mercaptoethanol, and […] sucrose supplemented with phosphatase and protease inhibitor cocktails (Roche Diagnostics, Monza, Italy). Subsequently, protein samples were sonicated twice for 20′ by using an ultrasonic probe, followed by centrifugation at 10 000g for 10 min at 4 °C. Sample proteins (30 μg) were diluted in 4X NuPage LDS sample buffer (Invitrogen, NP0007), heated at 80 °C for 5 min, and then separated on a Biorad Criterion XT 4–15% Bis–Tris gel (BIO-RAD) by electrophoresis and then transferred to a PVDF membrane (BIO-RAD). Blots were blocked using the Odyssey Blocking Buffer (LI-COR Biosciences) and probed with appropriate antibodies: HO-1 antibody (GeneTex GTX101147), goat polyclonal anti-VEGF (cat. no. sc-1836, Santa Cruz Biotechnology), and rabbit polyclonal anti-β-tubulin (cat n.sc-9104, Santa Cruz Biotechnology) and β-actin antibody (GeneTex GTX109639).
The secondary antibodies goat antirabbit (Odyssey, #926-32211; Odyssey #926-68021) and donkey antigoat IRDye 800CW (cat #926-32214; Li-Cor Biosciences) were used at 1:7000. Blots were scanned, and densitometric analysis was performed with the Odyssey Infrared Imaging System. Values were normalized to β-actin and to β-tubulin.

A549 cells = test: MTT cell viability assay, A549; assay type: cell-based, human; conditions: 48 h, 10 μM
Protocol: as §4, §5

DU145 cells = test: MTT cell viability assay, DU145; assay type: cell-based; conditions: 48 h, 1 μM and 10 μM
Protocol: as §4, §5

| SMILES | IC50 (HO-1 [1]) | melting point | further results |
| --- | --- | --- | --- |
| O=C(Cn1ccnc1)Nc1ccccc1 [7a] | 110 ± 3.1 µM |  |  |
| CN(C(=O)Cn1ccnc1)c1ccccc1 [7b, 2-(1H-Imidazol-1-yl)-N-methyl-N-phenylacetamide] |  | 117 to 119 °C |  |
| O=C(Cn1ccnc1)Nc1cccc(Br)c1 [7c, N-(3-Bromophenyl)-2-(1H-imidazol-1-yl)acetamide] | 35.7 ± 1.2 µM | 158 to 162 °C |  |
| O=C(Cn1ccnc1)Nc1ccc(I)cc1 [7d, 2-(1H-Imidazol-1-yl)-N-(4-iodophenyl)acetamide] | 8.34 ± 0.21 µM | 222 to 225 °C |  |
| CN(C(=O)Cn1ccnc1)c1ccc(I)cc1 [7e, 2-(1H-Imidazol-1-yl)-N-(4-iodophenyl)-N-methylacetamide] | 96.1 ± 1.44 µM |  |  |
| O=C(Cn1ccnc1)NCc1ccccc1 [7f] | 57.6 ± 2.38 µM |  | fold decrease in potency with respect to 4 (HO-1) (HO-1 [1]): 2 fold |
| CN(Cc1ccccc1)C(=O)Cn1ccnc1 [7g, N-Benzyl-2-(1H-imidazol-1-yl)-N-methylacetamide] | 50.6 ± 1.84 µM | 106 to 111 °C |  |
| O=C(Cn1ccnc1)N(Cc1ccccc1)Cc1ccccc1 [7h, N,N-Dibenzyl-2-(1H-imidazol-1-yl)acetamide] | 64.8 ± 1.56 µM | 99 to 102 °C |  |
| CN(C(=O)Cn1ccnc1)C(c1ccccc1)C1CCCC1 (stereo not drawn) [7j, N-(Cyclopentyl(phenyl)methyl)-2-(1H-imidazol-1-yl)-N-methylacetamide] | 11.4 ± 0.97 µM | 134 to 136 °C | fold less potent than compound 7i (HO-1) (HO-1 [1]): 13 fold |
| CN(C(=O)Cn1ccnc1)C(c1ccccc1)C1CCCCC1 (stereo not drawn) [7k, N-(Cyclohexyl(phenyl)methyl)-2-(1H-imidazol-1-yl)-N-methylacetamide] | 26.8 ± 1.61 µM | 130 to 133 °C | fold less potent than compound 7i (HO-1) (HO-1 [1]): 30 fold |
| CN(C(=O)Cn1ccnc1)C(c1ccccc1)c1cccc(Br)c1 (stereo not drawn) [7m, N-((3-Bromophenyl)(phenyl)methyl)-2-(1H-imidazol-1-yl)-N-methylacetamide] | 0.9 ± 0.03 µM | 82 to 83 °C | IC50 (HO-2): 1.1 ± 0.04 µM; cell viability reduction (in words) (A172 cells; all tested concentrations (1, 10, 50 μM)): weak activity; cell viability reduction (U87MG cells): more than 30%; HO-1 protein expression (in words) (HO-1 [2]): enhanced its levels; HO-1 vs HO-2 selectivity (in words) (HO-1 [1]): superimposable HO-1 and HO-2 IC50 values; SI (HO-2/HO-1) (HO-1 [1]): 1.2 |
| CN(C(=O)Cn1ccnc1)C(c1ccccc1)c1ccc(OCc2ccc(Br)cc2)cc1 (stereo not drawn) [7p, N-((4-((4-Bromobenzyl)oxy)phenyl)(phenyl)methyl)-2-(1H-imidazol-1-yl)-N-methylacetamide] | 8 ± 0.39 µM | 120 to 121 °C | IC50 (HO-2): 24.71 ± 0.14 µM; cell viability reduction (in words) (A172 cells; 10 μM): milder activity; cell viability reduction (in words) (A172 cells; 50 μM): only at 50 μM; cell viability reduction (U87MG cells): around 20%; cell viability reduction (in words) (A549 cells): weak effect; fold less potent than 7o (HO-1) (HO-1 [1]): about 6.5 fold; fold less potent than compound 7i (HO-1) (HO-1 [1]): ~9 fold; fold more selective for the inducible isoform (HO-1 over HO-2) (HO-1 [1]): 3 fold; SI (HO-2/HO-1) (HO-1 [1]): 3.1; cell viability reduction (in words) (DU145 cells): had efficacies |
| CC(=O)N(CCCn1ccnc1)Cc1ccccc1 [11a, N-(3-(1H-Imidazol-1-yl)propyl)-N-benzylacetamide] | 224 ± 8.1 µM |  | HO-1 inhibitory activity (in words) (HO-1 [1]): almost inactive |
| O=C(c1ccccc1)N(CCCn1ccnc1)Cc1ccccc1 [11b, N-(3-(1H-Imidazol-1-yl)propyl)-N-benzylbenzamide] | 31 ± 1.74 µM |  | HO-1 inhibitory activity (in words) (HO-1 [1]): comparable to the hit compound 4 |
| O=C(Cc1ccccc1)N(CCCn1ccnc1)Cc1ccccc1 [11c, N-(3-(1H-Imidazol-1-yl)propyl)-N-benzyl-2-phenylacetamide] | 32 ± 1.48 µM |  | HO-1 inhibitory activity (in words) (HO-1 [1]): comparable to the hit compound 4 |
